Results as given in patent US11377442B2, “Small molecule agonists and antagonists of NR2F6 activity” (ZANDER THERAPEUTICS, INC., priority 2016, dated 2022).

Legend:
Format in all cases: in vitro ADME
hCyt P450 [1] = target: hCyt P450 (Homo sapiens, UniProt P11712); test: CYP inhibition; details: CYP 2C9-Tolbutamide
hCyt P450 [2] = target: hCyt P450 (Homo sapiens, UniProt P10635); test: CYP inhibition; details: CYP 2D6-Dextromethorphan
hCyt P450 [3] = target: T1, hCyt P450 (Homo sapiens, UniProt P05177); test: CYP inhibition; details: CYP 1A2-Phenacetin
T1 sequence (P05177 1-516): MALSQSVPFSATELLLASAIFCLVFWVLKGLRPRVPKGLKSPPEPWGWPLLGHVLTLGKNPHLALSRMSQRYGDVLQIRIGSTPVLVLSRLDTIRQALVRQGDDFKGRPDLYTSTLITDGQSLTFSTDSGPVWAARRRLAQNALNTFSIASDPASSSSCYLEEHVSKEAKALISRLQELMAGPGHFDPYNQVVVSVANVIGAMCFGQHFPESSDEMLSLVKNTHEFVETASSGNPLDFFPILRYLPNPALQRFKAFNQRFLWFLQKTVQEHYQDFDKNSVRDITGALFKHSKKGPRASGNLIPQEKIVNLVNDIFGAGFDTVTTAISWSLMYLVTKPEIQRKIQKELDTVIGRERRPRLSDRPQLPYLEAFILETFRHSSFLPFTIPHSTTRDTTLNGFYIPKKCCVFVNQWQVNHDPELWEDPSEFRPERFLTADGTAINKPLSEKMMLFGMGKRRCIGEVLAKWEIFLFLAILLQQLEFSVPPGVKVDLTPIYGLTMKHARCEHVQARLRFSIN

hCyt P450 [4] = target: hCyt P450 (Homo sapiens, UniProt P33261); test: CYP inhibition; details: CYP 2C19-Mephenytoin
[5] = Microsomal stability in rat liver microsomes
PPB = details: for recovery: plasma

Chain of hCyt P450 (Homo sapiens, UniProt P10635) (P10635 whole entry): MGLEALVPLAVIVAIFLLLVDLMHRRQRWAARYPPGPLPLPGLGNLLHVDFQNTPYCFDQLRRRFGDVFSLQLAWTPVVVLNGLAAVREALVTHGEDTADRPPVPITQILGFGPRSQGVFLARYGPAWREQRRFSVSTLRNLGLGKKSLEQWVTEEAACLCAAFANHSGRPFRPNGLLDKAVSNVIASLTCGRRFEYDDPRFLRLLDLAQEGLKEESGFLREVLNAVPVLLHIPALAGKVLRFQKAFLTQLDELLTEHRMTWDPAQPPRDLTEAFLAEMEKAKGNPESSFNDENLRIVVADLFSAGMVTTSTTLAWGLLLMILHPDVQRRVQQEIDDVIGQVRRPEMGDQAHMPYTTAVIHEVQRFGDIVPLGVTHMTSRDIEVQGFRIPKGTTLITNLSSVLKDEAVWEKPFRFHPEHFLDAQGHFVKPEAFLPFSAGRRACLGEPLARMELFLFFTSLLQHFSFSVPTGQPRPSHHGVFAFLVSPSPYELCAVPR
Chain of hCyt P450 (Homo sapiens, UniProt P33261) (P33261 whole entry): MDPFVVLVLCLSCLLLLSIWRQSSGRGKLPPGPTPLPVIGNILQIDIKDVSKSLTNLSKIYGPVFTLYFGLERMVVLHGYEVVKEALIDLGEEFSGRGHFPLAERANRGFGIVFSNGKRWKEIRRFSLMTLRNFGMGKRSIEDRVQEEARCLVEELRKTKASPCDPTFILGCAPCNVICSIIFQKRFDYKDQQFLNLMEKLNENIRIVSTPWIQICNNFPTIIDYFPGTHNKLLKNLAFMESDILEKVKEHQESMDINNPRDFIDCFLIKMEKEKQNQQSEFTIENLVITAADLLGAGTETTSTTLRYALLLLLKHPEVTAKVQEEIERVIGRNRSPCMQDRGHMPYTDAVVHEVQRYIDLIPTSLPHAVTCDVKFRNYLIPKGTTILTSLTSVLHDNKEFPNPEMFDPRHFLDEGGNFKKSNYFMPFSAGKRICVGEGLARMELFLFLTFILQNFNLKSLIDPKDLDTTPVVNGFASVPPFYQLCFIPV
Chain of hCyt P450 (Homo sapiens, UniProt P11712) (P11712 whole entry): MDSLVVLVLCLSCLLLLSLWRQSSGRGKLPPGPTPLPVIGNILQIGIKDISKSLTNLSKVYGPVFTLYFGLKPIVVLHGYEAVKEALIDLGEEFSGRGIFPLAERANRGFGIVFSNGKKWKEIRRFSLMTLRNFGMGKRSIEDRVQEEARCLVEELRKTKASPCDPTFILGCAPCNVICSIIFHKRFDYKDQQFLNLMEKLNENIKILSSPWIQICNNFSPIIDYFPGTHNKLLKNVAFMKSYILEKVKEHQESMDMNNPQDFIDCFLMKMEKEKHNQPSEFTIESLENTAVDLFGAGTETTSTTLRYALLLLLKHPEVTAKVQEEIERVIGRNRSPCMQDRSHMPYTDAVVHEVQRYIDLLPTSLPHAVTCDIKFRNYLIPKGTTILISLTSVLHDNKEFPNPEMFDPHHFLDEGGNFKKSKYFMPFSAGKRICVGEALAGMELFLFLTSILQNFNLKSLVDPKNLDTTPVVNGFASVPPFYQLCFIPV

With COCCN[C@H]1CS(=O)(=O)C[C@@H]1S(=O)(=O)c1ccc(Cl)cc1 [Compound D136] the CYP inhibition conclusion (hCyt P450 [1]) was “no inhi-”, the IC50 (hCyt P450 [1]) was > 10 µM and the CYP inhibition conclusion (hCyt P450 [2]) was “no inhi-”. For the same molecule, the IC50 (hCyt P450 [2]) was > 10 µM, the CYP inhibition conclusion (hCyt P450 [3]) was “no inhi-” and the IC50 (hCyt P450 [3]) was > 10 µM. The CYP inhibition conclusion (hCyt P450 [4]) was “no inhi-”, the IC50 (hCyt P450 [4]) was > 10 µM and the “stability in presence of rat liver microsomes” value [5] was “Extremely stable”. The “%, Bound” value (PPB; Human) was 51.6%, the “%, Free (50% pI)” value (PPB; Human) was 65.3% and the “%, Free (recalc from 50% pI)” value (PPB; Human) was 48.4%. For the same molecule, the “Permeability, %” value (PPB; Human) was 94%, the “%, Bound” value (PPB; Rat) was 52.0% and the “%, Free (50% pI)” value (PPB; Rat) was 64.9%. For the same molecule, the “%, Free (recalc from 50% pI)” value (PPB; Rat) was 48.0%, the “Permeability, %” value (PPB; Rat) was 94% and the recovery (PPB; human) was 56.9%. For the same molecule, the recovery (PPB; rat) was 122%.
